Calls of active or inactive are those of the source.
How the values were obtained:
Cytochrome P450 3A4 [1] = target: T1, Cytochrome P450 3A4 (Homo sapiens, UniProt P08684);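 also: CYP3A4 tested as one member of a cytochrome P450 panel screen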
Troponin, cardiac muscle = Troponin, cardiac muscle (Homo sapiens, UniProt P19429+P45379+P63316); assay: Fluorescence-based biochemical high throughput dose response assay for activators of the calcium sensitivity of cardiac Regulated Thin Filaments (RTF). [Related pubchem assays (depositor defined):AID493008, AID493018, AID504382, AID504383]; format: protein-complex assay
[2] = NIH3T3 cell viability loss – ATP luminescence, mouse fibroblasts, counter-screen, dose response (AID 2010); format: functional, cell-based;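 also: cells exposed to compound for about 90 hours before reading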
Cytochrome P450 3A4 [3] = target: T1, Cytochrome P450 3A4; remark: listed apart in the source
[4] = Trypanosoma cruzi growth suppression in host cells – NIH3T3 host cells, beta-gal luminescence, confirmation (AID 2044); format: functional, cell-based;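 also: intracellular parasites grown in NIH/3T3 mouse fibroblasts as host cells; luminescent beta-galactosidase reporter signal from transgenic T. cruzi replicating inside host cells; inhibitors lower the luminescence signal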
[5] = target: Glucose-6-phosphate 1-dehydrogenase (Homo sapiens, UniProt P11413); assay: inhibition of Homo sapiens G6PD, dose series – biochemical, fluorescence, selectivity assay for P. falciparum G6PD inhibitor project, dose response (AID 504792); format: functional
[6] = target: Voltage-gated inwardly rectifying potassium channel KCNH2 (Homo sapiens, UniProt Q12809); details: Potency;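 also: confirmatory quantitative high-throughput screen measuring inhibition of hERG channel activity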
cells [7] = format: functional, cell-based
Vero = assay: cells; format: functional; details: Chlorocebus sabaeus
cells [8] = format: functional, cell-based; remark: listed apart in the source
[9] = target: G-protein coupled receptor 55 (Homo sapiens, UniProt Q9Y2T6); assay: inhibition of LPI-stimulated GPR55 beta-arrestin translocation – imaging, U2OS, beta-arrestin-GFP, LPI agonist, primary screen (AID 2013); format: functional;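 also: antagonist potency measured as reduced agonist-driven arrestin aggregation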
[10] = THP-1 cell cytotoxicity, dose response, cytotoxicity control for non-replicating M. tuberculosis project (AID 489025); format: functional
[11] = Luminescence Cell-Based Dose Retest to Confirm Inhibitors of Cancer Stem Cells. [Related pubchem assays (depositor defined):AID2717, AID2721]; format: functional; details: Homo sapiens
[12] = fluconazole-exposed Candida albicans growth modulators – fluorescence, retest, confirmation (AID 2467); format: functional, cell-based
[13] = NIH-3T3 fibroblast cytotoxicity, dose response, cytotoxicity control, cell-based, fluorescence, Alamar Blue, secondary assay (AID 2327); format: functional;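 also: NIH-3T3 mouse fibroblasts cultured with fluconazole at 8 µg/mL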
SUMO-activating enzyme = SUMO-activating enzyme (Homo sapiens, UniProt Q9UBT2); assay: blockers of UBC9-mediated SUMO conjugation – biochemical, AlphaScreen, SUMOylation inhibitor project, confirmation (AID 2018); format: functional
[14] = target: DNA dC->dU-editing enzyme APOBEC-3A (Homo sapiens, UniProt P31941); assay: Dose Response confirmation of small molecule APOBEC3A DNA Deaminase Inhibitors via a fluorescence-based single-stranded DNA deaminase assay. [Related pubchem assays (depositor defined):AID493011, AID493024]; format: functional
[15] = target: DNA dC->dU-editing enzyme APOBEC-3G (Homo sapiens, UniProt Q9HC16); format: functional;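 also: Dose-response counterscreen measuring inhibition of APOBEC3G DNA deaminase activity, run while confirming APOBEC3A inhibitors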
H4 = assay: Luminescence Cell-Based Dose Response HTS to Identify Activators of 5'UTR Stem-Loop Driven Prion Protein mRNA Translation in H4 Neuroglioblastoma Cells. [Related pubchem assays: 1829 (Project Summary), 1814 (Primary HTS)]; format: functional; details: Homo sapiens
[16] = Luminescence Cell-Based Dose Response HTS to Identify Activators of Luciferase Translation or Activity in H4 […] Cells. [Related pubchem assays: 1829 (Project Summary), 1814 (Primary HTS)]; format: functional
[17] = Luminescence Cell-Based Dose Confirmation HTS to Identify Activators of 5'UTR Stem-Loop Driven Alpha-Synuclein mRNA Translation in H4 Neuroglioblastoma Cells. [Related pubchem assays: 1829 (Project Summary), 1814 (Primary HTS)]; format: functional
Beta-galactosidase [18] = target: T2, Beta-galactosidase (Escherichia coli, UniProt Q8VNN2); assay: PubChem AID 485352; format: functional
[19] = target: T3, Type-1 angiotensin II receptor (Homo sapiens, UniProt P30556); assay: antagonism of angiotensin II type 1 receptor – cell-based, uHTS hits, selectivity assay for APJ receptor antagonist project, dose response (AID 463214); format: functional;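 also: antagonist potency against angiotensin II stimulated AT1 response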
T3 sequence (P30556 whole entry): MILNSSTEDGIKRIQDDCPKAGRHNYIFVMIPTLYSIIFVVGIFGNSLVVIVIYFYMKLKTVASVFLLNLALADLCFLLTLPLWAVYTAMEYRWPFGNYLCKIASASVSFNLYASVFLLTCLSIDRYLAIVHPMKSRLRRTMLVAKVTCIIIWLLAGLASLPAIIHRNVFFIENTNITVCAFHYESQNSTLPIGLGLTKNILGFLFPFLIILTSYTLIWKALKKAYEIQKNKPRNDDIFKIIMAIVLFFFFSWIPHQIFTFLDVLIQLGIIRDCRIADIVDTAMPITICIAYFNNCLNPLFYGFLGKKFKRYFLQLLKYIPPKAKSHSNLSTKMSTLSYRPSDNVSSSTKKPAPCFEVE

Beta-galactosidase [20] = target: T2, Beta-galactosidase; assay: detection-enzyme interference by beta-gal modulators – biochemical, E. coli enzyme, set 3, artefact control for CCR6 antagonist project, dose response (AID 504712); format: functional
Bcl-2-like protein 10 = target: T4, Bcl-2-like protein 10 (Homo sapiens, UniProt Q9HD36); assay: Bcl-B/TR3 peptide binding disruption – biochemical, fluorescence polarization, FITC-TR3 peptide, selectivity assay for Bfl-1 inhibitor project, primary screen (AID 748);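 also: fluorescence polarization from a fluorescein-labelled TR3 peptide binding purified Bcl-B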
T4 sequence (Q9HD36 whole entry): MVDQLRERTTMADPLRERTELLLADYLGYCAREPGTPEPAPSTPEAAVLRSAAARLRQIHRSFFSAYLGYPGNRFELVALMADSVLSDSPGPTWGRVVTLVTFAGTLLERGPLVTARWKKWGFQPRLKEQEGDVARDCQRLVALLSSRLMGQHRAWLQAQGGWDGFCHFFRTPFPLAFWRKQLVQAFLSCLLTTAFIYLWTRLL

Protein skinhead-1 = target: T5, Protein skinhead-1 (Caenorhabditis elegans, UniProt P34707); format: functional
T5 sequence (P34707 whole entry): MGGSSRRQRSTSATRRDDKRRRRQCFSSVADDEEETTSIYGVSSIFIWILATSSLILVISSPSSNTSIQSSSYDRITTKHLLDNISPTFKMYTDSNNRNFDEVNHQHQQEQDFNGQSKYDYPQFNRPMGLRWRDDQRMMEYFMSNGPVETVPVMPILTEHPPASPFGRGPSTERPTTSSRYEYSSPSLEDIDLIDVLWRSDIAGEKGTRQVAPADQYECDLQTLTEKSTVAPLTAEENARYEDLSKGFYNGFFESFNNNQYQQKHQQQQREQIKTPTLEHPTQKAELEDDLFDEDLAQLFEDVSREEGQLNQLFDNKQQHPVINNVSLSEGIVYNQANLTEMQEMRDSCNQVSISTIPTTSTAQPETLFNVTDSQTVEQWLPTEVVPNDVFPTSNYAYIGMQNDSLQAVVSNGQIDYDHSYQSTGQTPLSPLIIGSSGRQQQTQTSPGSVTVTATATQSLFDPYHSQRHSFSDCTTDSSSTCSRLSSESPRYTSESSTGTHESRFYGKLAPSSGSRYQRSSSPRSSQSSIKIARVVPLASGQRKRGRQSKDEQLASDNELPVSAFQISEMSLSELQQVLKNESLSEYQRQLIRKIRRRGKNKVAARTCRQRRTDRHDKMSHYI

[21] = target: T6, Rac GTPase-activating protein 1 (Homo sapiens, UniProt Q9H0H5); assay: blockers of MgcRacGAP-driven Rac1 GTP hydrolysis – biochemical, ADP Hunter fluorescence, primary and confirmatory, confirmation (AID 624330); format: functional
T6 sequence (Q9H0H5 whole entry): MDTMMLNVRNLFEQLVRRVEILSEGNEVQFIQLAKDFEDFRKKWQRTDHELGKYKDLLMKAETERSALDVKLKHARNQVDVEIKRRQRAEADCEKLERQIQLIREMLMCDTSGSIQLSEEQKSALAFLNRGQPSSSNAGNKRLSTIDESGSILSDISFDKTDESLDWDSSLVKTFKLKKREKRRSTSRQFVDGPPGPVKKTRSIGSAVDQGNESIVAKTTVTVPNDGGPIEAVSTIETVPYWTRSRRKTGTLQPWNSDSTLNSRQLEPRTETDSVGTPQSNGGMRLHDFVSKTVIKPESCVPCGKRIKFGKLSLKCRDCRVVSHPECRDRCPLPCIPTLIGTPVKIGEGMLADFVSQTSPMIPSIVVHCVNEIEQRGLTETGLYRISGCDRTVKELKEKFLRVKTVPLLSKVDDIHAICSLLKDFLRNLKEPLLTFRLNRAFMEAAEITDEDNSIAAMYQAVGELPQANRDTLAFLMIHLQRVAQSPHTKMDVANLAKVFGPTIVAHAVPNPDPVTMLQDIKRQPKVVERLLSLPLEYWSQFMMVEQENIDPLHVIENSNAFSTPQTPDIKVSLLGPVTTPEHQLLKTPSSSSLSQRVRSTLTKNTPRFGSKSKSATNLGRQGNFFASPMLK

HEK293 [22] = assay: cells; details: Homo sapiens
HEK293 [23] = assay: cells; details: Homo sapiens; remark: listed apart in the source
[24] = target: T7, Tyrosine-protein phosphatase non-receptor type 7 (Homo sapiens, UniProt P35236); assay: redox-active compounds inhibiting HePTP phosphatase – biochemical, fluorescence, mechanism study (AID 2068); format: functional
T7 sequence (P35236 whole entry): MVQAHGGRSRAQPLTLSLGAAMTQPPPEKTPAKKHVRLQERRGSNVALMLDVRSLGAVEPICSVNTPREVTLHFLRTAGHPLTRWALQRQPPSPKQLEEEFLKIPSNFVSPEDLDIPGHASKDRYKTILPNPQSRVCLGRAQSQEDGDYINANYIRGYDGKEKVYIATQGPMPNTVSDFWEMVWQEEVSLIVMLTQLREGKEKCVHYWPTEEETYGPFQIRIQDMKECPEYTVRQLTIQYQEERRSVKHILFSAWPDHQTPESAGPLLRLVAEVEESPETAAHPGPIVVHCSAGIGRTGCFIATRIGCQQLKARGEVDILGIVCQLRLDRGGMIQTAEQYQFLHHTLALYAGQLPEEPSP

Sequence of DNA dC->dU-editing enzyme APOBEC-3G (Q9HC16 whole entry): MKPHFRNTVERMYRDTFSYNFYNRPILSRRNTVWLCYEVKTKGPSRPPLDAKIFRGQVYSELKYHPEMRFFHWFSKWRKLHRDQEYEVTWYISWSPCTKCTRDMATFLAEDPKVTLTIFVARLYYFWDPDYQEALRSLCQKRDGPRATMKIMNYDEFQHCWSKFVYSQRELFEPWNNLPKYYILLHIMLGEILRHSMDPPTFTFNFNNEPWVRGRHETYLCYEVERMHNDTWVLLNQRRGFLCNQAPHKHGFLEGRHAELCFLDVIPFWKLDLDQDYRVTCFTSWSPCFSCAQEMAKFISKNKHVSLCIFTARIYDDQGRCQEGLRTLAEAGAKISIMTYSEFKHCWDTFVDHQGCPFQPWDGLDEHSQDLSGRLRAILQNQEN
Sequence of Glucose-6-phosphate 1-dehydrogenase (P11413 whole entry): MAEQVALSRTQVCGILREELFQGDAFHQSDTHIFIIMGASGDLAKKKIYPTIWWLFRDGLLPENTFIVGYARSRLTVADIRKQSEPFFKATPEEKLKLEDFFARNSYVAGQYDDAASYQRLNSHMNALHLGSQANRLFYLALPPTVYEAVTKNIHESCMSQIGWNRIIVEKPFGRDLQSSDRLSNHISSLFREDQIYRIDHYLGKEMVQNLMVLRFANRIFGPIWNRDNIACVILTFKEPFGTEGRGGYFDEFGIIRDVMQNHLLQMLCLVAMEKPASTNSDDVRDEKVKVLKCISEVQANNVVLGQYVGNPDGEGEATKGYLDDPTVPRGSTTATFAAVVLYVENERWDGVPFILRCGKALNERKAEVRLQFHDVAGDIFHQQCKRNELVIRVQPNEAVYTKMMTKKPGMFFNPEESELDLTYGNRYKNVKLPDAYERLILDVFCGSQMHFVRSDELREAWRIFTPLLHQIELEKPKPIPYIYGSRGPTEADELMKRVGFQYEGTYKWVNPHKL
T1 sequence (P08684 whole entry): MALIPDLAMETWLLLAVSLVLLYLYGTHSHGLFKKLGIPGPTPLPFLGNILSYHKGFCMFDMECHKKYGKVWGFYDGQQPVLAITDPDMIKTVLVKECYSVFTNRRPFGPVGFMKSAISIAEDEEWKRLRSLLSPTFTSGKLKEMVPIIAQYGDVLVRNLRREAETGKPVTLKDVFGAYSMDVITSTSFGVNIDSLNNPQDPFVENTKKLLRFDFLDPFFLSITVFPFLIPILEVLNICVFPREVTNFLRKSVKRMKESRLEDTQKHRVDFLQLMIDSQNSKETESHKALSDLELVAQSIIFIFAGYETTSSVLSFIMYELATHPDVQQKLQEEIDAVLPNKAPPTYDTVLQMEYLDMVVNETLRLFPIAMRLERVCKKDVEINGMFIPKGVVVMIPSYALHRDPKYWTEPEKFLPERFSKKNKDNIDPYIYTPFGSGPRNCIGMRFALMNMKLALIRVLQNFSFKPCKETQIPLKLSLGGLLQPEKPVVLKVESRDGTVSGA
Sequence of DNA dC->dU-editing enzyme APOBEC-3A (P31941 whole entry): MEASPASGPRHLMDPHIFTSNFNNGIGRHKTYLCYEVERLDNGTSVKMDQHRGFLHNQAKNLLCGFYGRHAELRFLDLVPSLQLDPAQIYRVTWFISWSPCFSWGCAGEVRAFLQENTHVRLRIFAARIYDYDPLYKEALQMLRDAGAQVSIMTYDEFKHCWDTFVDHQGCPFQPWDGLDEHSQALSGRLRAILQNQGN
T2 sequence (Q8VNN2 whole entry): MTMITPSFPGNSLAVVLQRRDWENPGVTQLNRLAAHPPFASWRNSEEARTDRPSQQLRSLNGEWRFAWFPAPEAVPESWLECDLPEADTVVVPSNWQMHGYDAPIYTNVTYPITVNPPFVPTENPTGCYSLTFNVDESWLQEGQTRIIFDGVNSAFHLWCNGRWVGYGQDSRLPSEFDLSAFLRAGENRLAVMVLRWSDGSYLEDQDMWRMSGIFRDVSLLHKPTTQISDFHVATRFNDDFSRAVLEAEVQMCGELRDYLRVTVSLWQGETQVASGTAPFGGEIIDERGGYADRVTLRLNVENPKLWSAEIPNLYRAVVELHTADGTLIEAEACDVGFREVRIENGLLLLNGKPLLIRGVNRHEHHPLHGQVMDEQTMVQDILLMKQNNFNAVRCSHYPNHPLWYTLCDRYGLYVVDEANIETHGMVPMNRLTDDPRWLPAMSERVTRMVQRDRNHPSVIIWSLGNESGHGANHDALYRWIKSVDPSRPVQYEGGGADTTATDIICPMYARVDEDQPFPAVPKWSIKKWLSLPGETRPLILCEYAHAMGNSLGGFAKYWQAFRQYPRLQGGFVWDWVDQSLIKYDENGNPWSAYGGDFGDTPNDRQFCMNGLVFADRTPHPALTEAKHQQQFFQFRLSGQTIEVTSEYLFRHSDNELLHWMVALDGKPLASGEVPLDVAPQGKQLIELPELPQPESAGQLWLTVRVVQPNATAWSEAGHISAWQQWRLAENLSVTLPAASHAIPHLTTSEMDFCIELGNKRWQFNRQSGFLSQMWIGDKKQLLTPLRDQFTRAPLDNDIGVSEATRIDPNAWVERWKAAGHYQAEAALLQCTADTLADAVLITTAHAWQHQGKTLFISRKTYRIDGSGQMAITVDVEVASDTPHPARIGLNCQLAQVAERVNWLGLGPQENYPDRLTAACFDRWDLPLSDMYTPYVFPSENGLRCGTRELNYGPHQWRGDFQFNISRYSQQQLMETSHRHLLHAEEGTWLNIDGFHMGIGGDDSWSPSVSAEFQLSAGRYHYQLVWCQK
Sequence of SUMO-activating enzyme (Q9UBE0 whole entry): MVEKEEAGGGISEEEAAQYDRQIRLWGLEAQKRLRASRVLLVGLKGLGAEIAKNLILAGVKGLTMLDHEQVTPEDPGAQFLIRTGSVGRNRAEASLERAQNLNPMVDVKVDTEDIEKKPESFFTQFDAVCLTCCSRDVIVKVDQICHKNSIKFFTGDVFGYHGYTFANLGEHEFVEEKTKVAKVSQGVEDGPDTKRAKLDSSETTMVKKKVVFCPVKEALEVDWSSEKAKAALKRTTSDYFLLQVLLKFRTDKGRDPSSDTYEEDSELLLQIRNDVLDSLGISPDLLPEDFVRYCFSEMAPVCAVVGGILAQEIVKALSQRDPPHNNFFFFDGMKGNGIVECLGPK
Sequence of SUMO-activating enzyme (Q9UBT2 whole entry): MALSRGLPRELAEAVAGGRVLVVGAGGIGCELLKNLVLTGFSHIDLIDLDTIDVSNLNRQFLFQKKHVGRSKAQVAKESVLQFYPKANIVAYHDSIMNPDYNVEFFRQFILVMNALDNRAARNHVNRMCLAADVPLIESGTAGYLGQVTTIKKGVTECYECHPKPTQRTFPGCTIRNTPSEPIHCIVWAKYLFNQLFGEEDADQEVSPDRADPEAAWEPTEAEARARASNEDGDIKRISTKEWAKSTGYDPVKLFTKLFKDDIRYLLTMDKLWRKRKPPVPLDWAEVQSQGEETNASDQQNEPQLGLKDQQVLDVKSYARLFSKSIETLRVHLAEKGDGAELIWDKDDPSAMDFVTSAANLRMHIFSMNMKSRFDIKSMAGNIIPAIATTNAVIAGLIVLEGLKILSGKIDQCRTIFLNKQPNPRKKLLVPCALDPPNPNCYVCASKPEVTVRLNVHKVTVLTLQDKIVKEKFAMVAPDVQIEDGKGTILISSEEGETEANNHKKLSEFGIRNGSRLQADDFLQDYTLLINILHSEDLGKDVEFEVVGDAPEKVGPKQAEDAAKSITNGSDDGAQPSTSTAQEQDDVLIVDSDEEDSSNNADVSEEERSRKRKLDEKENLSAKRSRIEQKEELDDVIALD
Sequence of Voltage-gated inwardly rectifying potassium channel KCNH2 (Q12809 whole entry): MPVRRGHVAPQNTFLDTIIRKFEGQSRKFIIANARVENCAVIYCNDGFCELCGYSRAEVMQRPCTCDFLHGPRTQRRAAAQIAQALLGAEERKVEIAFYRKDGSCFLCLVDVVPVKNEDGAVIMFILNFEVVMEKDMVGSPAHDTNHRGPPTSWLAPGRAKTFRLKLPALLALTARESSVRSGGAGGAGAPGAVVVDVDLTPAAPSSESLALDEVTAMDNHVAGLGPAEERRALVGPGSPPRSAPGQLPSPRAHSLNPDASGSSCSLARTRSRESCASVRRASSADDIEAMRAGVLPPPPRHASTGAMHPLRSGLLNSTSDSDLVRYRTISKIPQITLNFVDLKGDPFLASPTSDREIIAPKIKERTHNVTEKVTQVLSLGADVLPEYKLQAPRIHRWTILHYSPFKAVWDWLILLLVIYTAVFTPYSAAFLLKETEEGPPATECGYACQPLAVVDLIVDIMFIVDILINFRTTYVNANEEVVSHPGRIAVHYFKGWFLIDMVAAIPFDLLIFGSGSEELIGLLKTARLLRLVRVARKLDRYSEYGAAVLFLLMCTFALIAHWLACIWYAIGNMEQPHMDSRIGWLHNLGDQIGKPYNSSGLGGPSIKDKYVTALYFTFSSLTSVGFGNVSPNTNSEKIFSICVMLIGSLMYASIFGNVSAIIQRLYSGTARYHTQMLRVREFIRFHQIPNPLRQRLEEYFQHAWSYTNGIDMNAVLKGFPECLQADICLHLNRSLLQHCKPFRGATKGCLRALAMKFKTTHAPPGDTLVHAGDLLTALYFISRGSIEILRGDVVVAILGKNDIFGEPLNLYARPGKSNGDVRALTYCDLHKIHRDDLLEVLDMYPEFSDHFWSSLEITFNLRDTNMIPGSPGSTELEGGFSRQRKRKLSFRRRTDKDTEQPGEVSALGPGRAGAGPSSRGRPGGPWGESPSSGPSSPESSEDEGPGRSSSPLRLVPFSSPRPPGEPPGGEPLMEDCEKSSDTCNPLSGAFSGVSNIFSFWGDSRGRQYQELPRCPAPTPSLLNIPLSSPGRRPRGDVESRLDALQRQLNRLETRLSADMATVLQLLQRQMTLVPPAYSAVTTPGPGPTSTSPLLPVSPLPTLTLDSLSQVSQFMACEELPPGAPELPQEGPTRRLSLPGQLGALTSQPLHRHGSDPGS

O=C(c1cccc(F)c1)N1CCC2(CCN(Cc3cc(C(F)(F)F)cc(C(F)(F)F)c3)CC2)CC1
AC50 (Cytochrome P450 3A4 [1]): inconclusive

Cc1ccc(N2C(=O)NC(=O)/C(=C/C=C/Nc3ccccc3)C2=O)cc1
EC50 (Troponin, cardiac muscle): 5.48 µM (active)

CCOC(=O)c1cnc2ccc(C)cc2c1Sc1ccccc1C(=O)OC
EC50 [2]: > 60 µM (not active)
AC50 (Cytochrome P450 3A4 [3]): 39.8 µM (inconclusive)
EC50 [4]: 4.01 µM (active)
IC50 [5]: > 80 µM (inactive)

O=[N+]([O-])c1ccccc1-c1ccccc1
AC50 [6]: 39.8 µM (inconclusive)

c1ccc(Cc2nnc(-c3ccccc3)o2)cc1
EC50 (cells [7]): > 350 µM (not active)
CC50 (Vero): 16.3 µM (active)
EC50 (cells [8]): 56.3 µM (active)
IC50 [9]: 3.3 µM (active)
CC50 [10]: > 40 µM (active)

CN(C)CCNC(=O)COc1ccc(C23CC4CC(CC(C4)C2)C3)cc1
EC50 [2]: > 60 µM (inconclusive)
AC50 [11]: 4.95 µM (active)
CC50 (Vero): 18.5 µM (active)
EC50 [4]: 1.83 µM (active)

CCOC(=O)c1cnc(-c2ccccc2)nc1Oc1ccccc1
AC50 (Cytochrome P450 3A4 [1]): inconclusive

CCc1cc(-c2[nH]nc(C)c2-c2ccccc2Cl)c(O)cc1OC
EC50 [12]: > 38 µM (not active)
AC50 [11]: 4.42 µM (active)
IC50 [5]: > 80 µM (inactive)
EC50 [13]: 6.06 µM (inconclusive)

O=C(c1ccc2c(c1)nc(S)n1c3ccccc3nc21)N1CCN(c2ncccn2)CC1
IC50 (SUMO-activating enzyme): 50.6 µM (active)

N#Cc1ccc(CN2CC3(CCN(C(=O)c4cccc(F)c4)CC3)C2)cc1
AC50 (Cytochrome P450 3A4 [1]): inconclusive

C[N+]1(CC(COCc2ccccc2)OC(=O)Cc2ccccc2)CCOCC1 (configuration not stated)
IC50 [14]: 2.41 µM (active)
IC50 [15]: 2.42 µM (active)

O=C(/C=C/c1cccc(O)c1)c1ccc(N2CCOCC2)cc1
CC50 (Vero): 12.7 µM (active)
EC50 (H4): > 120 µM (not active)
EC50 [16]: 12.3 µM (active)
EC50 [17]: > 120 µM (not active)

CCN(CC)c1nc(C)c(C(S)=Nc2cc([N+](=O)[O-])ccc2Cl)s1
EC50 (Beta-galactosidase [18]): 24.8 µM (active)
IC50 [19]: > 40 µM (not active)

O=C1CC(Sc2nnnn2C2CCCCC2)C(=O)N1c1ccccc1 (configuration not stated)
IC50 (Beta-galactosidase [20]): > 66.6 µM (inactive)

Nc1ccc(N2CCN(C(=O)c3cccs3)CC2)cc1
IC50 (Bcl-2-like protein 10): > 100 µM (inactive)
IC50 (Protein skinhead-1): > 100 µM (inactive)
IC50 [21]: 19 µM (active)

CC1(C#CC[N+]2(C)CCCCC2)CCC2C(O1)c1ccccc1OC2(C)C (configuration not stated)
IC50 [14]: 3.03 µM (active)
IC50 [15]: 5.07 µM (active)

COc1cc2c(cc1OC)-c1nnc(-c3cccs3)n1C(C)(C)C2
EC50 (HEK293 [22]): > 59.6 µM (inactive)
EC50 (HEK293 [23]): > 59.6 µM (inactive)

CCCCNC(=O)CSc1nc2ccc(NC(=O)CSc3nnc(N)s3)cc2s1
IC50 [14]: 3.61 µM (active)
IC50 [15]: 6.28 µM (active)

COc1ccccc1NS(=O)(=O)c1cc(NC(=O)c2cc3ccccc3oc2=O)ccc1C
EC50 (Troponin, cardiac muscle): > 71.5 µM (inactive)

O=C(C1=C(O)C(=O)N(CCN2CCOCC2)C1c1ccc([N+](=O)[O-])cc1)c1cccs1 (configuration not stated)
EC50 (Troponin, cardiac muscle): > 71.4 µM (inactive)

COc1cccc(NC(=O)Nc2ccc3nc(-c4ccco4)c(-c4ccco4)nc3c2)c1
IC50 [24]: 1.09 µM (active)

Cc1nn(-c2ccccc2)c(Cl)c1/C=N/Nc1nc2ccccc2n1C
EC50 [2]: > 60 µM (not active)
EC50 [4]: 1.94 µM (active)
IC50 [5]: > 80 µM (inactive)

Reference: ChEMBL document CHEMBL1201862, “PubChem BioAssay data set” (2004)
